# Counter-ions that a name gives are not always drawn.
# Key:
# Type in all cases: biochemical
# Details in all cases: concentration required to double the clotting time
# Human plasma [1] = experiment: Human plasma anticoagulation, thrombin time (TT)
# Experimental: (§1) Dog plasma and rat plasma is obtained from conscious mixed-breed hounds (either sex, Hazelton-LRE, Kalamazoo, Mich., U.S.A.) or from anesthetized male Sprague-Dawley rats (Harlan Sprague-Dawley, Inc., Indianapolis, Ind., U.S.A.) by venipuncture into 3.8 percent citrate. Fibrinogen is prepared from in-date ACD human blood as the fraction I-2 according to previous procedures and specifications. […] Human fibrinogen is also purchased as 98 percent pure/plasmin free from American Diagnostica, Greenwich, Conn. Coagulation reagents ACTIN, Thromboplastin, and Human plasma are from Baxter Healthcare Corp., Dade Division, Miami, Fla. Bovine thrombin from Parke-Davis ([…], Mich.) is used for coagulation assays in plasma.
# (§2) Coagulation assay procedures are as previously described. […] A CoAScreener coagulation instrument (American LABor, Inc.) is used for all coagulation assay measurements. The prothrombin time (PT) is measured by adding 0.05 mL saline and 0.05 mL Thromboplastin-C reagent to 0.05 mL test plasma. The activated partial thromboplastin time (APTT) is measured by incubation of 0.05 mL test plasma with 0.05 mL Actin reagent for 120 seconds followed by 0.05 mL CaCl2 (0.02M). The thrombin time (TT) is measured by adding 0.05 mL saline and 0.05 mL thrombin (10 NIH units/mL) to 0.05 mL test plasma. The compounds of Formula I are added to human or animal plasma over a wide range of concentrations to determine prolongation effects on the APTT, PT, and TT assays. Linear extrapolations are performed to estimate the concentrations required to double the clotting time for each assay.
# Human plasma [2] = experiment: Human plasma anticoagulation, activated partial thromboplastin time (APTT)
# Experimental: as §1, §2
# Human plasma [3] = experiment: Human plasma anticoagulation, prothrombin time (PT)
# Experimental: as §1, §2
Compound,2x Clotting time TT (Human plasma [1]),2x Clotting time APTT (Human plasma [2]),2x Clotting time PT (Human plasma [3])
"N=C(N)c1cccc(CCNC(=O)[C@@H]2CCCN2C(=O)[C@@H]2NCC[C@@H]3CCCC[C@@H]32)c1 [Example 29, 1-Piq-Pro-m-NHCH2 CH2 -C6 H4 C(=NH)NH2.2HCl]",750 ng/mL,"9,800 ng/mL","15,800 ng/mL"
"N=C(N)c1ccc(CNC(=O)[C@@H]2CCCN2C(=O)[C@@H](CC2CCCCC2)NCCCC(=O)O)cc1 [Example 85, HOOCCH2 CH2 CH2 -D-Cha-Pro-p-NHCH2 C6 H4 C(NH)NH2.HCl]",4.9 ng/mL,100 ng/mL,197 ng/mL
"O=C(O)CN[C@H](CC1CCCCC1)C(=O)N1CCC[C@H]1C(=O)NCCCC1=CCNCC1 [Example 60, HO2 CCH2 -D-Cha-Pro-4-NHCH2 CH2 CH2 -3,4-dehydro-piperidine.HCl]","3,200 ng/mL","22,200 ng/mL","77,700 ng/mL"
"CCS(=O)(=O)N[C@H](Cc1ccccc1)C(=O)N1CCC[C@H]1C(=O)NCCc1cccc(C(=N)N)c1 [Example 27, EtSO2 -D-Phe-Pro-m-NHCH2 CH2 -C6 H4 C(=NH)NH2.HCl]","1,940 ng/mL","27,800 ng/mL","27,000 ng/mL"
"CCS(=O)(=O)N[C@H](Cc1ccccc1)C(=O)N1CCC[C@H]1C(=O)NCc1cccc(NC(=N)N)c1 [Example 36, EtSO2 -D-Phe-Pro-m-NHCH2 C6 H4 NHC(NH)NH2.HCl]","7,700 ng/mL","> 91,000 ng/mL","> 91,000 ng/mL"
"O=C(O)CN[C@H](CC1CCCCC1)C(=O)N1CCC[C@H]1C(=O)NCCCC1CCNCC1 [Example 55, HO2 CCH2 -D-Cha-Pro-4-NHCH2 CH2 CH2 -piperidine.HCl]","55,800 ng/mL","> 91,000 ng/mL","> 91,000 ng/mL"
"N=C(N)N1CCC(CNC(=O)[C@@H]2CCCN2C(=O)[C@@H](CC2CCCCC2)NCC(=O)O)CC1 [Example 56, HO2 CCH2 -D-Cha-Pro-4-NHCH2 -1-amidinopiperidine.HCl]",5 ng/mL,160 ng/mL,200 ng/mL
"N=C(N)c1ccc(CNC(=O)[C@@H]2CCCN2C(=O)[C@H]2C[C@H]3CCCC[C@H]3CN2)cc1 [Example 19, D-3-Piq-Pro-p-NHCH2 C6 H4 C(NH)NH2.3HCl]",58 ng/mL,300 ng/mL,540 ng/mL
"Nc1ccc(CNC(=O)[C@@H]2CCCN2C(=O)[C@@H](CC2CCCCC2)NCC(=O)O)cc1F [Example 77, HO2 CCH2 -D-Cha-Pro-4-NHCH2 -2-F-aniline.HCl]",53 ng/mL,"1,600 ng/mL",890 ng/mL
"CCS(=O)(=O)N[C@H](CC1CCCCC1)C(=O)N1CCC[C@H]1C(=O)NCc1ccnc(N)c1 [Example 83, EtSO2 -D-Cha-Pro-4-NHCH2 -2-aminopyridine.HCl]",91 ng/mL,"1,000 ng/mL","1,300 ng/mL"
"N=C(N)c1ccc(CNC(=O)[C@@H]2CCCN2C(=O)[C@@H](CC2CCCCC2)NCC(=O)O)nn1 [Example 69, HO2 CCH2 -D-Cha-Pro-3-NHCH2 -6-amidinopyridazine.HCl]",5. ng/mL,110 ng/mL,220 ng/mL
"N=C(N)c1cccc(CCCNC(=O)[C@@H]2CCCN2C(=O)[C@@H]2NCC[C@@H]3CCCC[C@@H]32)c1 [Example 33, 1-Piq-Pro-m-NHCH2 CH2 CH2 -C6 H4 C(=NH)NH2.HCl]","18,900 ng/mL","59,300 ng/mL","70,900 ng/mL"
"CCS(=O)(=O)N[C@H](Cc1ccccc1)C(=O)N1CCC[C@H]1C(=O)NCc1cccc(C(=N)N)c1 [Example 24, EtSO2 -D-Phe-Pro-m-NHCH2 -C6 H4 C(=NH)NH2.HCl]","1,000 ng/mL","25,900 ng/mL","25,000 ng/mL"
"N=C(N)c1ccc(CNC(=O)[C@@H]2CCCN2C(=O)[C@@H](CC2CCCCC2)NCC(=O)O)nc1 [Example 66, HO2 CCH2 -D-Cha-Pro-2-NHCH2 -5-amidinopyridine.HCl]",7.9 ng/mL,180 ng/mL,270 ng/mL
"N=C(N)c1cccc(CNC(=O)[C@@H]2CCCN2C(=O)[C@H](N)Cc2ccccc2)c1 [Example 16, D-Phe-Pro-m-NHCH2 C6 H4 C(NH)NH2.0.75HCl]",650 ng/mL,"8,600 ng/mL","8,500 ng/mL"
"O=C(O)CN[C@H](CC1CCCCC1)C(=O)N1CCC[C@H]1C(=O)NCCC1=CCNCC1 [Example 59, HO2 CCH2 -D-Cha-Pro-4-NHCH2 CH2 -3,4-dehydro-piperidine.HCl]",420 ng/mL,"5,500 ng/mL","7,000 ng/mL"
"O=C(O)CN[C@H](CC1CCCCC1)C(=O)N1CCC[C@H]1C(=O)NCC1CCNCC1 [Example 53, HO2 CCH2 -D-Cha-Pro-4-NHCH2 -piperidine.HCl]","1,400 ng/mL","33,800 ng/mL","34,500 ng/mL"
"CCC(CC)C(=O)N[C@@H](CCS(C)(=O)=O)C(=O)N1CCC[C@H]1C(=O)NCc1ccc(C(=N)N)cc1 [Example 91, (C2 H5)2 CHCO-Met(O2)-Pro-p-NHCH2 C6 H4 C(NH)NH2.HCl]",63 ng/mL,"3,000 ng/mL","3,500 ng/mL"
"Nc1cc(CNC(=O)[C@@H]2CCCN2C(=O)[C@@H](CC2CCCCC2)NCC(=O)O)ccn1 [Example 73, HO2 CCH2 -D-Cha-Pro-4-NHCH2 -2-aminopyridine.HCl]",21 ng/mL,340 ng/mL,330 ng/mL
"Nc1cc(CCNC(=O)[C@@H]2CCCN2C(=O)[C@@H](CC2CCCCC2)NCC(=O)O)ccn1 [Example 76, HO2 CCH2 -D-Cha-Pro-4-NHCH2 CH2 -2-aminopyridine.HCl]",29 ng/mL,490 ng/mL,560 ng/mL
"CCS(=O)(=O)N[C@H](CC1CCCCC1)C(=O)N1CCC[C@H]1C(=O)NCc1ccc(CN)cc1 [Example 81, EtSO2 -D-Cha-Pro-4-NHCH2 C6 H4 CH2 NH2.HCl]",110 ng/mL,"1,500 ng/mL","2,700 ng/mL"
"N=C(N)Nc1ccc(CNC(=O)[C@@H]2CCCN2C(=O)[C@@H]2NCC[C@@H]3CCCC[C@@H]32)cc1 [Example 38, D-1-Piq-Pro-p-NHCH2 C6 H4 NHC(NH)NH2.2HCl]",540 ng/mL,"6,100 ng/mL","11,100 ng/mL"
"N=C(N)N1CC=C(CNC(=O)[C@@H]2CCCN2C(=O)[C@@H](CC2CCCCC2)NCC(=O)O)CC1 [Example 70, HO2 CCH2 -D-Cha-Pro-4-NHCH2 -1-amidino-3,4-dehydro-piperidine.HCl]",2 ng/mL,160 ng/mL,180 ng/mL
"N=C(N)N1CCC(CCNC(=O)[C@@H]2CCCN2C(=O)[C@@H](CC2CCCCC2)NCC(=O)O)CC1 [Example 57, HO2 CCH2 -D-Cha-Pro-4-NHCH2 CH2 -1-amidinopiperidine.HCl]",14 ng/mL,360 ng/mL,340 ng/mL
HOOCCH2 -D-hPhe-Pro-p-NHCH2 C6 H4 C(NH)NH2.HCl [Example 87],9 ng/mL,260 ng/mL,310 ng/mL
"Nc1ccc(CNC(=O)[C@@H]2CCCN2C(=O)[C@@H](CC2CCCCC2)NCC(=O)O)cn1 [Example 74, HO2 CCH2 -D-Cha-Pro-5-NHCH2 -2-aminopyridine.HCl]",20 ng/mL,420 ng/mL,350 ng/mL
"CCS(=O)(=O)N[C@H](CC1CCCCC1)C(=O)N1CCC[C@H]1C(=O)NCc1ccc(N)nc1 [Example 84, EtSO2 -D-Cha-Pro-5-NHCH2 -2-aminopyridine.HCl]",110 ng/mL,"1,500 ng/mL","1,900 ng/mL"
"N=C(N)c1ccc(CCNC(=O)[C@@H]2CCCN2C(=O)[C@@H]2NCC[C@@H]3CCCC[C@@H]32)cc1 [Example 28, 1-Piq-Pro-p-NHCH2 CH2 -C6 H4 C(=NH)NH2.2HCl]",520 ng/mL,"8,100 ng/mL","8,300 ng/mL"
"N=C(N)c1ccc(CNC(=O)[C@@H]2CCCN2C(=O)[C@@H](CCC2CCCCC2)NCC(=O)O)cc1 [Example 88, HOOCCH2 -D-hCha-Pro-p-NHCH2 C6 H4 C(NH)NH2.HCl]",4 ng/mL,100 ng/mL,200 ng/mL

# Reference: US5726159A, “Antithrombotic agents” (Eli Lilly and Company, priority 1995, dated 1998)
